Reference: patent US20120034193A1, “TREATMENT OF NEUROTROPHIC FACTOR MEDIATED DISORDERS” (priority 2009, published 2012)

Key:
pmn mice = test: Progressive motor neuropathy (pmn) mouse model; type: in vivo
Description: Affected homozygous +/+ pmn (“pmn mice”) mice were obtained from a breeding colony of extra toe locus(Xt)+/+pmn double heterozygous mice maintained at Neurofit (Illkirch, France). The pmn mice were dosed by oral gavage every day, starting 10 days after birth, just after the initial symptoms of the disease manifest. Sarsasapogenin (0.03, 0.3 and 3 μg/kg/day) was administered to pmn mice as a suspension in oil (10 ml/kg). Electromyographic (EMG) recordings were performed using a standard Neuromatic 2000M electromyograph apparatus in accordance with the guidelines of the American Association of Electrodiagnostic Medicine. Standard behavioural tests (grid, rotarod and hanging tests) performed weekly from day 8 assessed the motor performances of the pmn mice.
The effect of sarsasapogenin on motor function was assessed by recording the amplitude of gastrocnemius evoked motor response (CMAP, an indirect measurement of the number of functional motor neurones).

[1] = system: Free Radical Scavenger, SOD Mimetic; test: Functional assay; type: biochemical, Bovine; details: smilagenin 1 μM
Description: The enzyme activity modulation was investigated using the following method: Sarsasapogenin was incubated with each enzyme plus a specific substrate for each enzyme. After the incubation period the reaction was stopped and the reduction of the specific substrate or the increase in a specific product in the absence and presence of sarsasapogenin was measured and the percent inhibition of the reaction in the presence of sarsasapogenin was calculated. The amount of enzyme used, the incubation conditions, the substrate used and the method of quantification varied depending on each specific assay.
(§1) Using the same methods as described above, the binding of smilagenin (1 μM) to the receptors listed in Table 2 below, and the effect of smilagenin on the activity of the enzymes listed in Table 2 below, were investigated.

[2] = system: dopamine transporter (DAT); test: Striatal DAT level in MPTP-lesioned mice ([I^125]-RTI binding), 60 days; type: in vivo, C57b1/6 RJ mice; details: 10 mg/kg/day oral, control 74.4, MPTP 23.4
Description: Seven-week old male C57b1/6 RJ mice (C57 mice) received daily injections 1-methyl-4-phenyl-1,2,3,6-tetrahydropyridine (MPTP, 25 mg/kg/day, i.p., for 5 consecutive days) and oral administration of smilagenin (10 mg/kg/day) or vehicle (hydroxylpropylmethylcellulose, HPMC 0.5% w/v containing tween-80 0.2% v/v) for 60 days after which time their brains were removed for quantification of striatal levels of GDNF and BDNF using an ELISA and of dopamine transporter (DAT) levels using [I^125]-RTI binding. DAT is a marker for neuronal damage to dopaminergic neurones.

[3] = system: Platelet-Derived Growth Factor (PDGF); test: Binding assay; set-up: species or system Mouse; details: smilagenin 1 μM
Description: (§2) The receptor binding was investigated using the following method: Sarsasapogenin was incubated with tissue or cell homogenate that expressed the receptor of interest and a known concentration a radiolabelled compound with affinity for the receptor of interest. After the incubation period the non-bound radiolabelled compound was removed and the amount of specific binding was quantified. The amount of specific binding in the presence and absence of sarsasapogenin were compared and the percent inhibition of the binding of the radiolabelled compound by sarsasapogenin was calculated. The source of the receptor, the incubation conditions, the radiolabelled compound used varied depending on each specific assay.
as §1

[4] = system: Transforming Growth Factor-β (TGF-β); test: Binding assay; set-up: species or system Mouse; details: smilagenin 1 μM
Description: as §2, §1

Phorbol Ester = test: Binding assay; set-up: species or system Mouse; details: smilagenin 1 μM
Description: as §2, §1

[5] = target: Nicotinic Acetylcholine α1, Bungarotoxin (Homo sapiens, UniProt P02708+P07510+Q07001); test: Binding assay; details: smilagenin 1 μM
[6] = system: dopamine transporter (DAT); test: Striatal DAT level in control and MPTP mice, 61 or 71 days of dosing; type: in vivo, C57 mice; details: 10 mg/kg/day oral
Description: In a similar experiment, 10-week old male C57 mice received daily injections of saline or MPTP (25 mg/kg/day, i.p.) for 5 consecutive days (days 1-5) and oral administration of smilagenin (10 mg/kg/day) or vehicle (HPMC 0.5% w/v containing tween-80 0.2% v/v) for 61 days (days […]) or 71 days (days 2-72) after which time their brains were removed for quantification of striatal levels of DAT, marker of the extent of neuronal damage to dopaminergic neurones

BDNF mRNA = BDNF mRNA in rat cortical neurones pre-incubated 48 h then exposed to β-amyloid; type: cell-based; details: 10 μM pre-incubation 48 h
Description: Rat cortical neurones were cultured by modification of a method previously described (Eckenstein and Sofroniew, Journal of Neuroscience, 1983, 3, pp. 2286-2291). On day 8, the culture medium was changed to a medium containing vehicle (DMSO, 0.5%) or smilagenin (10 μM). On day 10, rat primary cortical neurones were exposed to β-amyloid (10 μg/ml) for up to 48 h at 37° C. and the level of BDNF mRNA in the cortical neurones was assessed by rt RT-PCR over the following 48 h.

GDNF = test: Unbound GDNF in the putamen of MPTP-lesioned macaques; type: in vivo, Macaca fascicularis; details: smilagenin 20 mg/kg/day p.o., 18 weeks; control 9.52, MPTP 15.33
Description: (§3) Nineteen female cynomolgus monkeys (Macaca fascicularis, 3.0-4.5 kg, 4-6 years old) were acclimatised to the experimental setting and procedures for 3 months and baseline behaviour was assessed in all animals. Fourteen female macaques received MPTP (0.2 mg/kg/day, s.c.) until marked, stable, parkinsonian symptoms developed. Animals (n=7/group) were randomly assigned to two groups; smilagenin (20 mg/kg/day, p.o.) or vehicle control (HPMC, 0.5% w/v containing Tween 80, 0.2% v/v).
(§4) Assessments of parkinsonian disability were made after MPTP administration and following 18 weeks of smilagenin or vehicle administration. Parkinsonian disability was evaluated by post hoc analysis of DVD-recordings by a neurologist blinded to the treatment. At the end of the study the brains were removed and the levels of unbound GDNF and BDNF in the putamen were measured using Multiplex ELISA/Aushon assays. The MPTP treated macaques used in this experiment thus provide an accepted model for Parkinson's disease and similar motor-sensory neurodegenerative conditions.

[7] = target: Nicotinic Acetylcholine α7, Bungarotoxin (Rattus norvegicus, UniProt Q05941); test: Binding assay; details: smilagenin 1 μM
BDNF = test: Unbound BDNF in the putamen of MPTP-lesioned macaques; type: in vivo, Macaca fascicularis; details: smilagenin 20 mg/kg/day p.o., 18 weeks; control 257.58, MPTP 388.73
Description: as §3, §4

Nicotinic Acetylcholine α1, Bungarotoxin, sequence (P07510 23-517): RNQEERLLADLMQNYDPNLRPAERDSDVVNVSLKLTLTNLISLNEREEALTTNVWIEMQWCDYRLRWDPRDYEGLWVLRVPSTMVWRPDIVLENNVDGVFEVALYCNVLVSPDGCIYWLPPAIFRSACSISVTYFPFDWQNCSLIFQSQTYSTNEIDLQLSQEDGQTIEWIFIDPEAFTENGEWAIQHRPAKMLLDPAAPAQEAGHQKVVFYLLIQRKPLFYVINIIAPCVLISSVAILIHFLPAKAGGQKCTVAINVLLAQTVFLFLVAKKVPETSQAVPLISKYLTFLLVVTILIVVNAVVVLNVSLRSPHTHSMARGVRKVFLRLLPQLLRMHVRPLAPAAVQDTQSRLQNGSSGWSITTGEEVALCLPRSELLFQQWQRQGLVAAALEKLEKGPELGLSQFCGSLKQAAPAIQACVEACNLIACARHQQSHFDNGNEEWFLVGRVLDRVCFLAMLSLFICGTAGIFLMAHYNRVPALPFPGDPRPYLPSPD
Nicotinic Acetylcholine α1, Bungarotoxin, sequence (P11230 24-501, further chain): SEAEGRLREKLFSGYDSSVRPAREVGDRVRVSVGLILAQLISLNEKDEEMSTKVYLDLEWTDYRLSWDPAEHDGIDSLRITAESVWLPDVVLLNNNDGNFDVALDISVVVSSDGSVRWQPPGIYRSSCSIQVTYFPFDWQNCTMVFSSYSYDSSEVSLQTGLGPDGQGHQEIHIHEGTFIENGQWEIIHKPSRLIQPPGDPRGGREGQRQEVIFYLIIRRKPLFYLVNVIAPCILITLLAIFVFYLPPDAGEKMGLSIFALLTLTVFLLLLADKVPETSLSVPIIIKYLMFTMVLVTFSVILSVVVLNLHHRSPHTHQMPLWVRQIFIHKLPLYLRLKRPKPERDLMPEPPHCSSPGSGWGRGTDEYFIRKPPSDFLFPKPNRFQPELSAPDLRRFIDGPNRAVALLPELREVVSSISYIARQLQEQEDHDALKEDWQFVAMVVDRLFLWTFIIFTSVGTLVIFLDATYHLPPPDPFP
Nicotinic Acetylcholine α1, Bungarotoxin, sequence (Q07001 22-517): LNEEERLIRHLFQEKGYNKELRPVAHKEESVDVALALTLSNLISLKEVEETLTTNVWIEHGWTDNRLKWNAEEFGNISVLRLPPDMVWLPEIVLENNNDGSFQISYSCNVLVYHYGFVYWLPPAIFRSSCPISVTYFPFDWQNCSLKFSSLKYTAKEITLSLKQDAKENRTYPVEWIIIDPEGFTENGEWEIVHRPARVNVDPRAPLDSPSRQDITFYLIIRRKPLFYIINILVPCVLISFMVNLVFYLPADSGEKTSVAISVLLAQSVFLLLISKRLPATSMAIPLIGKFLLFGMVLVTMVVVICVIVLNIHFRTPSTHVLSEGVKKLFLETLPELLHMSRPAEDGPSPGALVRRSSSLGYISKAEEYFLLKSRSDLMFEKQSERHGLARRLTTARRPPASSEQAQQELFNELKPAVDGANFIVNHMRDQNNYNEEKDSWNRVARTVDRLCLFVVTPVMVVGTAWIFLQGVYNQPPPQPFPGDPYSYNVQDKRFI
Nicotinic Acetylcholine α1, Bungarotoxin, sequence (P02708 21-457): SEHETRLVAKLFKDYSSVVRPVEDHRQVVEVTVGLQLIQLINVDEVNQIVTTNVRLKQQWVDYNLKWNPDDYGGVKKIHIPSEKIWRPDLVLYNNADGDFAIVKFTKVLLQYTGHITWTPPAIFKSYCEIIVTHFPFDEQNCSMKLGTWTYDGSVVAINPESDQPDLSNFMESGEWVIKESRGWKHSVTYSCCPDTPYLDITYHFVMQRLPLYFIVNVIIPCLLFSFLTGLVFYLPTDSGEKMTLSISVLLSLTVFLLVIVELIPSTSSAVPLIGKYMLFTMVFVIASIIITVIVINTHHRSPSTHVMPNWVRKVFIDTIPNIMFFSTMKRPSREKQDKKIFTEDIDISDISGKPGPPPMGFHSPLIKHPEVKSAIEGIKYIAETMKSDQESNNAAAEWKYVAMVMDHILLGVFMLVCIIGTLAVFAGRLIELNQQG
Nicotinic Acetylcholine α7, Bungarotoxin, sequence (Q05941 23-502): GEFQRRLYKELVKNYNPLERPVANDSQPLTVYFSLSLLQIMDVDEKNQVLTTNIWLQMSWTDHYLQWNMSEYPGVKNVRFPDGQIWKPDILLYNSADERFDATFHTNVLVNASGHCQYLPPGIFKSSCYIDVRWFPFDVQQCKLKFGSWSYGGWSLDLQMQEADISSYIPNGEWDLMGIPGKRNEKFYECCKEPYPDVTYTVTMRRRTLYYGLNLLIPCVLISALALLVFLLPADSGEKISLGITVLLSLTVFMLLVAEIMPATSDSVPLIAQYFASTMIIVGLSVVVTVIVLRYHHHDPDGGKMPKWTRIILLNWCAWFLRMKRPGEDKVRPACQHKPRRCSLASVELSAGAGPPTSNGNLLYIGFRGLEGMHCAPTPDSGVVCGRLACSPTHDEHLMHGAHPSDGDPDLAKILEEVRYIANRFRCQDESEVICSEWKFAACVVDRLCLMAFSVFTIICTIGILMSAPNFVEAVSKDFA

Row | SMILES | Progression of the motor neurone degeneration (pmn mice; 0.03 μg/kg/day oral, lowest tested dosage) | Amplitude of CMAP (motor function) (pmn mice; 0.3 μg/kg/day oral from day 10 after birth, p<0.001) | Increase of survival (lifespan) of pmn mice compared to control (pmn mice; 0.3 μg/kg/day oral, after symptoms manifest, p=0.006) | Rotarod and grid test performances (pmn mice; 0.3 μg/kg/day oral, p=0.02 vs pmn control) | Effect (%) [1] | DAT level ([I^125]-RTI binding in the striatum; nCi/g protein) [2] [nCi/g protein] | Effect (%) [3] | Effect (%) [4] | Effect (%) (Phorbol Ester) | Effect (%) [5] | DAT level ([I^125]-RTI binding in the striatum; nCi/g protein) ([6]; MPTP mice, days 2-72) | DAT level ([I^125]-RTI binding in the striatum; nCi/g protein) ([6]; MPTP mice, days 12-72) | DAT level ([I^125]-RTI binding in the striatum; nCi/g protein) ([6]; control mice (no MPTP), days 2-72) [nCi/g protein] | Relative amount of BDNF mRNA (% of control at 0 h) (BDNF mRNA; β-amyloid 10 μg/ml exposure 6 h) | Relative amount of BDNF mRNA (% of control at 0 h) (BDNF mRNA; β-amyloid 10 μg/ml exposure 24 h) | Relative amount of BDNF mRNA (% of control at 0 h) (BDNF mRNA; β-amyloid 10 μg/ml exposure 48 h) | Mean ± s.e.mean of unbound GDNF level in the putamen (pg/mg protein) (GDNF) | Effect (%) [7] | Mean ± s.e.mean of unbound BDNF level in the putamen (pg/mg protein) (BDNF)
1 | C[C@H]1CC[C@@]2(OC1)O[C@H]1C[C@H]3[C@@H]4CC[C@@H]5C[C@@H](O)CC[C@]5(C)[C@H]4CC[C@]3(C)[C@H]1[C@@H]2C [Sarsasapogenin, sarsasapogenin] | does not delay the progression of the motor neurone degeneration | delayed the deterioration of motor function | up to 62% | significantly delayed the deterioration in the rotarod and grid test performances |  |  |  |  |  |  |  |  |  |  |  |  |  |  | 
2 | C[C@@H]1CC[C@@]2(OC1)O[C@H]1C[C@H]3[C@@H]4CC[C@@H]5C[C@@H](O)CC[C@]5(C)[C@H]4CC[C@]3(C)[C@H]1[C@@H]2C [Smilagenin, smilagenin] |  |  |  |  | NS (NS = No significant response. Significance was taken as ≧30% stimulation or inhibition) | 69.7 ± 8.8 | NS (NS = No significant response. Significance was taken as ≧30% stimulation or inhibition) | NS (NS = No significant response. Significance was taken as ≧30% stimulation or inhibition) | NS (NS = No significant response. Significance was taken as ≧30% stimulation or inhibition) | NS (NS = No significant response. Significance was taken as ≧30% stimulation or inhibition) | 256.2 ± 21.4^++++ nCi/g protein | 280.3 ± 18.3^++++ nCi/g protein | 406.2 ± 21.8 | 108.0 ± 5.2 % of control at 0 h | 321.5 ± 54.2 % of control at 0 h | 334.6 ± 48.1 % of control at 0 h | 5.09 ± 1.35 | NS (NS = No significant response. Significance was taken as ≧30% stimulation or inhibition) | 208.27 ± 36.58
